In publication PMC9785230, “Glutamine Synthetase Contributes to the Regulation of Growth, Conidiation, Sclerotia Development, and Resistance to Oxidative Stress in the Fungus Aspergillus flavus” (Toxins, 2022):
pIC50: −log10 of the molar value.

Molecular target: T1, glutamine synthetase AflGsA (recombinant rAflGsA) (Aspergillus flavus, UniProt A0A7U2MSK3)
T1 construct: gene F9C07_2280198; 6× His-rAflGsA, AflgsA cDNA cloned into pET-28a, expressed in E. coli BL21 (DE3)
T1 sequence (A0A7U2MSK3 1-357): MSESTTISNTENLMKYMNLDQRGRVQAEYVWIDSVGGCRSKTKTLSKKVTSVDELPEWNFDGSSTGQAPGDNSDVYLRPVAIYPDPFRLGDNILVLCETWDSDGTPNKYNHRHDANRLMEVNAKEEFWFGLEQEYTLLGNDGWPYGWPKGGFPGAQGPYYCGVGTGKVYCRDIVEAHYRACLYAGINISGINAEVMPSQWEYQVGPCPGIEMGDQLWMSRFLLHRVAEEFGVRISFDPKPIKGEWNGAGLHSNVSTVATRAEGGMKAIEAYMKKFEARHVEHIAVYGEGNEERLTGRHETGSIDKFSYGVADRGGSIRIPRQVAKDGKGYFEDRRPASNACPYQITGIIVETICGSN
Assay: glutamine synthetase activity assay at […] nm with purified recombinant enzyme, IC50 curve
Type: biochemical

pIC50: 3.54
SMILES: N[C@@H](CCCC(=O)O)C(=O)O [L-α-aminoadipic acid]
